# Literature values in US8673343B2, “Preparation and administration of jojoba product for reducing weight, fat and blood lipid levels and for the prevention and treatment of cancer” (Yiwu Jiangr Bio-Technology HK Corp., priority 2001, dated 2014).
# How the values were obtained:
# [1] = animal and human studies
# [2] = growing rats, long-term administration of lower doses
smiles,measurement,setting,value
"CO[C@H]1[C@@H](OC)C[C@@H](O[C@@H]2O[C@H](CO)[C@@H](O)[C@H](O)[C@H]2O)/C(=C\C#N)[C@@H]1O [simmondsin, 2-(cyanomethylene)-3-hydroxy-4,5-dimethoxycyclohexyl beta-D-glucoside]",other side effects commonly associated with cancer chemotherapy,[1],no other side effects
same,side effects,[2],without showing any side effects
same,sustained food intake inhibition,[2],about 20%
